# Assays:
# Test in all cases: relative viability (nuclei count vs DMSO), 5 days (fraction); higher = more cells survive
# VE-821 + Linsitinib = compound: CS(=O)(=O)c1ccc(-c2cnc(N)c(C(=O)Nc3ccccc3)n2)cc1 [VE-821] + C[C@]1(O)C[C@@H](c2nc(-c3ccc4ccc(-c5ccccc5)nc4c3)c3c(N)nccn32)C1 [Linsitinib] (partner 1 µM)
# Outline: (§1)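 Lung cancer cell lines were seeded in 1536-well plates and dosed by pin tool the next day, with either a single drug or a fixed anchor-drug dose combined with five library-drug doses (not always all listed) spaced in √10 steps. Five days later, one step fixed the cells and stained their nuclei (final 0.05% Triton X-100, 1% formaldehyde, 1 ug/ml Hoechst), and nuclei were counted on 4× images. Relative viability is the nuclei count in treated wells divided by the count in vehicle wells, and each value is the median of duplicate plates.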
# Ruxolitinib + Navitoclax = compound: N#CC[C@H](C1CCCC1)n1cc(-c2ncnc3[nH]ccc23)cn1 [Ruxolitinib] + CC1(C)CCC(c2ccc(Cl)cc2)=C(CN2CCN(c3ccc(C(=O)NS(=O)(=O)c4ccc(N[C@H](CCN5CCOCC5)CSc5ccccc5)c(S(=O)(=O)C(F)(F)F)c4)cc3)CC2)C1 [Navitoclax] (partner 0.5 µM)
# Outline: as §1
# Ruxolitinib + Linsitinib = compound: N#CC[C@H](C1CCCC1)n1cc(-c2ncnc3[nH]ccc23)cn1 [Ruxolitinib] + C[C@]1(O)C[C@@H](c2nc(-c3ccc4ccc(-c5ccccc5)nc4c3)c3c(N)nccn32)C1 [Linsitinib] (partner 1 µM)
# Outline: as §1
# Vismodegib + Olaparib = compound: CS(=O)(=O)c1ccc(C(=O)Nc2ccc(Cl)c(-c3ccccn3)c2)c(Cl)c1 [Vismodegib] + O=C(c1cc(Cc2n[nH]c(=O)c3ccccc23)ccc1F)N1CCN(C(=O)C2CC2)CC1 [Olaparib] (partner 8 µM)
# Outline: as §1
cell line,measurement,setting,value
UMC-11,relative viability,VE-821 + Linsitinib; first compound 0.08 µM,1.14
same,relative viability,VE-821 + Linsitinib; first compound 0.253 µM,1.03
same,relative viability,VE-821 + Linsitinib; first compound 0.8 µM,1.06
same,relative viability,VE-821 + Linsitinib; first compound 2.53 µM,1.04
same,relative viability,VE-821 + Linsitinib; first compound 8 µM,0.533
same,relative viability,Ruxolitinib + Navitoclax; first compound 0.08 µM,0.3
same,relative viability,Ruxolitinib + Navitoclax; first compound 0.253 µM,0.302
same,relative viability,Ruxolitinib + Navitoclax; first compound 0.8 µM,0.388
same,relative viability,Ruxolitinib + Navitoclax; first compound 2.53 µM,0.352
same,relative viability,Ruxolitinib + Navitoclax; first compound 8 µM,0.288
same,relative viability,Ruxolitinib + Linsitinib; first compound 0.08 µM,1.03
same,relative viability,Ruxolitinib + Linsitinib; first compound 0.253 µM,1.08
same,relative viability,Ruxolitinib + Linsitinib; first compound 0.8 µM,1.08
same,relative viability,Ruxolitinib + Linsitinib; first compound 2.53 µM,1.11
same,relative viability,Ruxolitinib + Linsitinib; first compound 8 µM,0.96
same,relative viability,Vismodegib + Olaparib; first compound 0.08 µM,0.416
same,relative viability,Vismodegib + Olaparib; first compound 0.253 µM,0.361
same,relative viability,Vismodegib + Olaparib; first compound 0.8 µM,0.376
same,relative viability,Vismodegib + Olaparib; first compound 2.53 µM,0.473
same,relative viability,Vismodegib + Olaparib; first compound 8 µM,0.373

# Source: the supplement of paper PMC10307832
